According to patent publication US6689773B2, “Uracil substituted phenyl sulfamoyl carboxamides” (BASF Aktiengesellschaft, priority 2000, dated 2004):

Legend:
Format in all cases: in vivo
[1] = system: XANST, Cocklebur, Xanthium strumariam; experiment: Postemergence herbicidal evaluation (Example 147); settings: rating scale 0-9, two to three weeks after treatment
Method in brief: (§1)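 Greenhouse postemergence test: two-week seedlings sprayed at about 0.016 to 0.032 kg/ha active. Scored visually, 0-9 scale, after two to three weeks.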

[2] = system: SETVI, Green foxtail, Setaria viridis, (L.)Beau; experiment: Postemergence herbicidal evaluation (Example 147); settings: rating scale 0-9, two to three weeks after treatment
Method in brief: as §1

[3] = system: IPOHE, Morningglory, Ivyleaf, Ipomoea hederacea, (L)Jacq.; experiment: Postemergence herbicidal evaluation (Example 147); settings: rating scale 0-9, two to three weeks after treatment
Method in brief: as §1

[4] = system: CHEAL, Lambsquarters, Chenopodium album, L. Common; experiment: Postemergence herbicidal evaluation (Example 147); settings: rating scale 0-9, two to three weeks after treatment
Method in brief: as §1

[5] = system: AMBEL, Ragweed, Common, Ambrosia artemiisifolia, L.; experiment: Postemergence herbicidal evaluation (Example 147); settings: rating scale 0-9, two to three weeks after treatment
Method in brief: as §1

[6] = system: GLXMA, Soybean, Glycine max, (L.) Merr.; experiment: Postemergence herbicidal evaluation (Example 147); settings: rating scale 0-9, two to three weeks after treatment
Method in brief: as §1

[7] = system: ZEAMX, Field corn, Zea mays L.; experiment: Postemergence herbicidal evaluation (Example 147); settings: rating scale 0-9, two to three weeks after treatment
Method in brief: as §1

[8] = system: ECHCG, Barnyardgrass, Echinochloa crusgalli, (L.)Beau; experiment: Postemergence herbicidal evaluation (Example 147); settings: rating scale 0-9, two to three weeks after treatment
Method in brief: as §1

[9] = system: TRZAW, Winter wheat, Tritium Aestivum, L. (Winter); experiment: Postemergence herbicidal evaluation (Example 147); settings: rating scale 0-9, two to three weeks after treatment
Method in brief: as §1

[10] = system: DIGSA, Crabgrass, (Hairy) L, Digitaria sanguinalis, (L)Scop; experiment: Postemergence herbicidal evaluation (Example 147); settings: rating scale 0-9, two to three weeks after treatment
Method in brief: as §1

[11] = system: ALOMY, Blackgrass, Alopecurus myosuroides; experiment: Postemergence herbicidal evaluation (Example 147); settings: rating scale 0-9, two to three weeks after treatment
Method in brief: as §1

[12] = system: ABUTH, Velvetleaf, Abutilon theophrasti, Medic.; experiment: Postemergence herbicidal evaluation (Example 147); settings: rating scale 0-9, two to three weeks after treatment
Method in brief: as §1

[13] = system: XANST, Cocklebur, Xanthium strumariam; experiment: Preemergence herbicidal evaluation (Example 148); settings: rating scale 0-9, two to four weeks after treatment
Method in brief: (§2)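 Herbicidal effect is a visual score comparing treated plants with a control for stand, vigor, size, malformation and chlorosis. Treatment was a preemergence spray (~0.125–0.250 kg/ha, aqueous acetone); assessment came 2–4 weeks later.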

[14] = system: SETVI, Green foxtail, Setaria viridis, (L.)Beau; experiment: Preemergence herbicidal evaluation (Example 148); settings: rating scale 0-9, two to four weeks after treatment
Method in brief: as §2

[15] = system: IPOHE, Morningglory, Ivyleaf, Ipomoea hederacea, (L)Jacq.; experiment: Preemergence herbicidal evaluation (Example 148); settings: rating scale 0-9, two to four weeks after treatment
Method in brief: as §2

[16] = system: CHEAL, Lambsquarters, Chenopodium album, L. Common; experiment: Preemergence herbicidal evaluation (Example 148); settings: rating scale 0-9, two to four weeks after treatment
Method in brief: as §2

[17] = system: AMBEL, Ragweed, Common, Ambrosia artemiisifolia, L.; experiment: Preemergence herbicidal evaluation (Example 148); settings: rating scale 0-9, two to four weeks after treatment
Method in brief: as §2

[18] = system: GLXMA, Soybean, Glycine max, (L.) Merr.; experiment: Preemergence herbicidal evaluation (Example 148); settings: rating scale 0-9, two to four weeks after treatment
Method in brief: as §2

[19] = system: ZEAMX, Field corn, Zea mays L.; experiment: Preemergence herbicidal evaluation (Example 148); settings: rating scale 0-9, two to four weeks after treatment
Method in brief: as §2

[20] = system: ECHCG, Barnyardgrass, Echinochloa crusgalli, (L.)Beau; experiment: Preemergence herbicidal evaluation (Example 148); settings: rating scale 0-9, two to four weeks after treatment
Method in brief: as §2

[21] = system: TRZAW, Winter wheat, Tritium Aestivum, L. (Winter); experiment: Preemergence herbicidal evaluation (Example 148); settings: rating scale 0-9, two to four weeks after treatment
Method in brief: as §2

[22] = system: DIGSA, Crabgrass, (Hairy) L, Digitaria sanguinalis, (L)Scop; experiment: Preemergence herbicidal evaluation (Example 148); settings: rating scale 0-9, two to four weeks after treatment
Method in brief: as §2

[23] = system: ALOMY, Blackgrass, Alopecurus myosuroides; experiment: Preemergence herbicidal evaluation (Example 148); settings: rating scale 0-9, two to four weeks after treatment
Method in brief: as §2

[24] = system: ABUTH, Velvetleaf, Abutilon theophrasti, Medic.; experiment: Preemergence herbicidal evaluation (Example 148); settings: rating scale 0-9, two to four weeks after treatment
Method in brief: as §2

Compound: CC(C)N(C(C)C)S(=O)(=O)NC(=O)c1cc(-n2c(=O)cc(C(F)(F)F)n(C)c2=O)c(F)cc1Cl [Example 60]
- Postemergence herbicidal rating XANST ([1]; rate 0.016 kg/ha): 9.0
- Postemergence herbicidal rating XANST ([1]; rate 0.032 kg/ha): 9.0
- Postemergence herbicidal rating SETVI ([2]; rate 0.016 kg/ha): 8.0
- Postemergence herbicidal rating SETVI ([2]; rate 0.032 kg/ha): 9.0
- Postemergence herbicidal rating IPOHE ([3]; rate 0.016 kg/ha): 9.0
- Postemergence herbicidal rating IPOHE ([3]; rate 0.032 kg/ha): 9.0
- Postemergence herbicidal rating CHEAL ([4]; rate 0.016 kg/ha): 8.0
- Postemergence herbicidal rating CHEAL ([4]; rate 0.032 kg/ha): 9.0
- Postemergence herbicidal rating AMBEL ([5]; rate 0.016 kg/ha): 9.0
- Postemergence herbicidal rating AMBEL ([5]; rate 0.032 kg/ha): 9.0
- Postemergence herbicidal rating GLXMA ([6]; rate 0.016 kg/ha): 8.5
- Postemergence herbicidal rating GLXMA ([6]; rate 0.032 kg/ha): 8.5
- Postemergence herbicidal rating ZEAMX ([7]; rate 0.016 kg/ha): 8.0
- Postemergence herbicidal rating ZEAMX ([7]; rate 0.032 kg/ha): 8.0
- Postemergence herbicidal rating ECHCG ([8]; rate 0.016 kg/ha): 8.0
- Postemergence herbicidal rating ECHCG ([8]; rate 0.032 kg/ha): 7.0
- Postemergence herbicidal rating TRZAW ([9]; rate 0.016 kg/ha): 6.0
- Postemergence herbicidal rating TRZAW ([9]; rate 0.032 kg/ha): 6.0
- Postemergence herbicidal rating DIGSA ([10]; rate 0.016 kg/ha): 6.0
- Postemergence herbicidal rating DIGSA ([10]; rate 0.032 kg/ha): 7.0
- Postemergence herbicidal rating ALMOY ([11]; rate 0.016 kg/ha): 3.0
- Postemergence herbicidal rating ALMOY ([11]; rate 0.032 kg/ha): 3.0
- Postemergence herbicidal rating ABUTH ([12]; rate 0.016 kg/ha): 9.0
- Postemergence herbicidal rating ABUTH ([12]; rate 0.032 kg/ha): 9.0
- Preemergence herbicidal rating XANST ([13]; rate 0.125 kg/ha): 0.0
- Preemergence herbicidal rating XANST ([13]; rate 0.25 kg/ha): 4.0
- Preemergence herbicidal rating SETVI ([14]; rate 0.125 kg/ha): 5.0
- Preemergence herbicidal rating SETVI ([14]; rate 0.25 kg/ha): 9.0
- Preemergence herbicidal rating IPOHE ([15]; rate 0.125 kg/ha): 7.0
- Preemergence herbicidal rating IPOHE ([15]; rate 0.25 kg/ha): 6.0
- Preemergence herbicidal rating CHEAL ([16]; rate 0.125 kg/ha): 9.0
- Preemergence herbicidal rating CHEAL ([16]; rate 0.25 kg/ha): 9.0
- Preemergence herbicidal rating AMBEL ([17]; rate 0.125 kg/ha): 9.0
- Preemergence herbicidal rating AMBEL ([17]; rate 0.25 kg/ha): 9.0
- Preemergence herbicidal rating GLXMA ([18]; rate 0.125 kg/ha): 0.0
- Preemergence herbicidal rating GLXMA ([18]; rate 0.25 kg/ha): 6.0
- Preemergence herbicidal rating ZEAMX ([19]; rate 0.125 kg/ha): 0.0
- Preemergence herbicidal rating ZEAMX ([19]; rate 0.25 kg/ha): 0.0
- Preemergence herbicidal rating ECHCG ([20]; rate 0.125 kg/ha): 0.0
- Preemergence herbicidal rating ECHCG ([20]; rate 0.25 kg/ha): 4.0
- Preemergence herbicidal rating TRZAW ([21]; rate 0.125 kg/ha): 0.0
- Preemergence herbicidal rating TRZAW ([21]; rate 0.25 kg/ha): 0.0
- Preemergence herbicidal rating DIGSA ([22]; rate 0.125 kg/ha): 6.0
- Preemergence herbicidal rating DIGSA ([22]; rate 0.25 kg/ha): 6.0
- Preemergence herbicidal rating ALMOY ([23]; rate 0.125 kg/ha): 0.0
- Preemergence herbicidal rating ALMOY ([23]; rate 0.25 kg/ha): 0.0
- Preemergence herbicidal rating ABUTH ([24]; rate 0.125 kg/ha): 9.0
- Preemergence herbicidal rating ABUTH ([24]; rate 0.25 kg/ha): 9.0
